According to patent US10766869B2, “Triazoles for the treatment of demyelinating dieases” (Vertex Pharmaceuticals Incorporated, priority 2015, dated 2020):

System: primary rat mixed cortical cells
Assay: In vitro myelination assay (MBP positive myelin strands, fold myelin pixels above background)
Format: cell-based
Conditions: Rattus norvegicus, relative to baseline of no added compound, read-out: Fold myelin pixels above background; for fold induction at 1 µM: 1.0 μM compound; for fold induction at 10 µM: 10.0 μM compound
Outline: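 Compounds at 1.0 and 10.0 μM were incubated 14 days with dissociated P1 rat cortical cells, which were then fixed and immunostained for MBP. Myelination was scored as fold MBP myelin pixels per well over the no-compound baseline.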

SMILES | fold induction at 1 µM | fold induction at 10 µM
Cc1cc(Nc2ncn(-c3cc(F)cc(F)c3F)n2)cc(N2CCN(C3COC3)CC2)c1 [Compound 484, N-[3-methyl-5-[4-(oxetan-3-yl)piperazin-1-yl]phenyl]-1-(2,3,5-trifluorophenyl)-1,2,4-triazol-3-amine] | ≤ 1 | ≤ 1
CN1CCN(c2cc(Nc3ncn(-c4ccccc4)n3)cc(C(F)(F)F)c2)CC1 [Compound 486, N-[3-(4-methylpiperazin-1-yl)-5-(trifluoromethyl)phenyl]-1-phenyl-1,2,4-triazol-3-amine] | 100 to 1000 | ≤ 1
Cc1cc(Nc2ncn(-c3cc(F)cc(F)c3)n2)cc([C@]2(O)CCN(C3COC3)C2)c1 [Compound 487, (3R)-3-[3-[[1-(3,5-difluorophenyl)-1,2,4-triazol-3-yl]amino]-5-methyl-phenyl]-1-(oxetan-3-yl)pyrrolidin-3-ol] | 100 to 1000 | 1 to 10
Cc1cc(Nc2ncn(-c3cccc(Cl)n3)n2)cc(N2CCCC2)c1 [Compound 488, 1-(6-chloro-2-pyridyl)-N-(3-methyl-5-pyrrolidin-1-yl-phenyl)-1,2,4-triazol-3-amine] | ≤ 1 | ≤ 1
CCc1cc(Nc2ncn(-c3cnccn3)n2)cc(N2CCN(C3(C)COC3)CC2)c1 [Compound 489, N-[3-ethyl-5-[4-(3-methyloxetan-3-yl)piperazin-1-yl]phenyl]-1-pyrazin-2-yl-1,2,4-triazol-3-amine] | 10 to 100 | 10 to 100
COC[C@H]1CCCN1c1cc(F)cc(-n2cnc(Nc3cc(C)cc(N4CCN(C5COC5)CC4)c3)n2)c1 [Compound 491, 1-[3-fluoro-5-[(2R)-2-(methoxymethyl)pyrrolidin-1-yl]phenyl]-N-[3-methyl-5-[4-(oxetan-3-yl)piperazin-1-yl]phenyl]-1,2,4-triazol-3-amine] | 100 to 1000 | ≤ 1
Fc1ccc(-n2cnc(Nc3cc(C4CC4)nc(N4CC[C@H](F)C4)c3)n2)cc1F [Compound 492, 2-cyclopropyl-N-[1-(3,4-difluorophenyl)-1,2,4-triazol-3-yl]-6-[(3S)-3-fluoropyrrolidin-1-yl]pyridin-4-amine] | 1000 to 10000 | 1000 to 10000
Cc1cc(Nc2ncn(-c3cc(F)cc(F)c3)n2)cc(N2CC(CO)C2)c1 [Compound 493, [1-[3-[[1-(3,5-difluorophenyl)-1,2,4-triazol-3-yl]amino]-5-methyl-phenyl]azetidin-3-yl]methanol] |  | ≤ 1
COC1CN(c2cc(F)cc(-n3cnc(Nc4cc(C5CC5)cc(N5CCN(C6COC6)CC5)c4)n3)c2)C1 [Compound 494, N-[3-cyclopropyl-5-[4-(oxetan-3-yl)piperazin-1-yl]phenyl]-1-[3-fluoro-5-(3-methoxyazetidin-1-yl)phenyl]-1,2,4-triazol-3-amine] | 100 to 1000 | 10 to 100
Cc1cc(Nc2ncn(-c3ccnc(N4CCCCCC4)c3)n2)cc(N2CCN(C)CC2)c1 [Compound 495, 1-[2-(azepan-1-yl)-4-pyridyl]-N-[3-methyl-5-(4-methylpiperazin-1-yl)phenyl]-1,2,4-triazol-3-amine] |  | ≤ 1
Cc1cc(NCCC2CCCO2)cc(Nc2ncn(-c3cc(F)cc(F)c3)n2)c1 (stereo not shown) [Compound 496, N1-[1-(3,5-difluorophenyl)-1,2,4-triazol-3-yl]-5-methyl-N3-(2-tetrahydrofuran-2-ylethyl)benzene-1,3-diamine] | 100 to 1000 | 1 to 10
Fc1cc(Nc2ncn(-c3ccc(F)cc3F)n2)cc(N2CCCC2)c1 [Compound 497, 1-(2,4-difluorophenyl)-N-(3-fluoro-5-pyrrolidin-1-yl-phenyl)-1,2,4-triazol-3-amine] | ≤ 1 | ≤ 1
